The source of these data is US10813919B2, “Use of histone deacetylase inhibitors for enhancing immunotherapies” (Indiana University Research and Technology Corporation, priority 2016, dated 2020).

One data set has as its system arginase-1 (Arg1). The experiment in a line: Quantitative real-time PCR of Arginase 1 in J774M cells. The conditions noted are these: 0.5 μM, 1 μM, 2 μM vs untreated control (p=0.003; 0.0041; 0.0043). In kind it is cell-based. As to the method: Quantitative real-time PCR: mRNA was extracted from J774M cells that were treated±entinostat using standard Trizol protocols. RNA concentration and purity were determined through measurement of A260/280 ratios with a Synergy Hi Multi-Mode reader. cDNA was prepared using the iScript kit (Bio-Rad) and qPCR was performed using an Applied Biosystems 7900HT fast real time PCR system. Sequence Detection Systems software v2.3 was used to identify the cycle threshold (Ct) values and to generate gene expression curves. Data were normalized to Gapdh expression and fold change was calculated. The primers used for target genes were: Gapdh_foward 5′-[…]-3′, Gapdh_reverse 5′-[…]-3′ (SEQ ID NO:1), Arginase 1_forward 5′-[…]-3′ (SEQ ID NO:2), and Arginase 1_reverse 5′-[…]-3′ (SEQ ID NO:3).
(In general: In qPCR the cycle at which signal appears reflects the starting amount.)

Data set [1] concerns RENCA-Luc murine renal cell carcinoma. Description: In vivo tumor growth (RENCA), orthotopic RENCA-Luc syngeneic model. Details: species or system Balb/c mice. The conditions noted are these: vs control; entinostat 5 mg/kg oral 5 days/week, anti-PD-1 10 mg/kg I.P.; end-point tumor weight. Here is the method:
Cell lines: The RENCA-Luc murine renal cell carcinoma cell line, purchased from American Type Culture Collection (National Cancer Institute), was stably transfected with a luciferase reporter in the Pili laboratory. Cells were cultured using RPMI 1640 (Corning) with 10% fetal bovine serum (Corning) and 1% Pen/Strep (Life Technologies). Cells were incubated in an incubator maintained at 37° C. and 5% CO2. 75-80% confluent cells were harvested for orthotopic injection into the kidney of Balb/c mice using 0.25% Trypsin (Corning) and suspended in a 1:1 ratio of MATRIGEL® (Corning) and DPBS (Gibco).
In vivo tumor growth (RENCA): All procedures were performed and approved in strict accordance with the Institutional Animal Care and Use Committee (IACUC) at Roswell Park Cancer Institute, Indiana University School of Medicine, and with the NIH Guide for the Care and Use of Laboratory Animal guidelines.
Female five- to six-week old Balb/c mice (Charles Rivers) were maintained in a temperature controlled room with a 12/12 hour light/dark schedule and food provided ad libitum. 70-80% confluent RENCA-Luc cells were harvested using 0.25% Trypsin (Corning) and suspended in a 1:1 ratio of matrigel (Corning) and HBSS (Gibco), 10 μl containing 1×10^4 cells was injected under the renal capsule. […]

The subject of a further data set is iNOS. Description: Fold change of iNOS in J774M cells. It counts as cell-based. The conditions noted are these: J774M cells treated with entinostat.
The next data set deals with J774M cells. Description: J774M cell proliferation or viability. In kind it is cell-based. As to conditions: 0.01-5 μM, up to 48 hours. As to the method:
The J774M cell line was cultured with DMEM (Corning) media with 10% fetal bovine serum (Corning) and 1% Pen/Strep (Life Technologies). Cells were incubated in 37° C. and 5% CO2.

For data set [2], the system named is T regulatory cells (CD4+FoxP3+). Description: FACS analysis of T regulatory cells in end-point blood and tumor samples. It counts as in vivo, Balb/c mice. The conditions noted are these: blood. Here is the method: (§1) Tumor suspension and spleenocyte preparation: Live tumor sections were isolated from tumors, cut into small pieces, and digested with an enzyme cocktail solution from the mouse tumor dissociation kit (Miltenyi Biotec—130-096-730). Tumors were incubated with the enzyme cocktail for 30 minutes at 37° C. with agitation. The enzyme reaction was arrested using PBS, cells were spun at 300 g, 4° C. for 7 minutes, re-suspended in PBS and mashed through a 70 um cell strainer. Cells from these tumors were either used for flow cytometry analysis or further processed and used for functional analyses.
Cell staining and flow cytometry: Splenocytes, tumor cell suspensions, and peripheral blood cells were washed, blocked with Fc Block (anti-mouse CD16/32 mAb; BD Biosciences) at 4° C. for 15 minutes, and stained with fluorescence conjugated antibodies against surface markers: CD45 (clone 30-F11), CD11b (clone M1/70), Gr1 (clone RB6-8C5), Ly6C (clone AL-21), Ly6G (clone 1A8), F480 (clone BM8), CD8a (clone 53-6.7), CD4 (clone RM4-5) antibodies purchased from BioLegend, eBioscience or BD Biosciences. Cells were then fixed in Fixation/Permeabilization buffer (eBioscience) and stained with antibodies against intracellular proteins, including FoxP3 (NRRF-30) and Granzyme B (clone GB11). The antibodies were purchased from BD Biosciences, Biolegend, and R&D Systems and used in staining. […]
For orientation: A flow cytometer gives signals particle by particle.

In data set [3] the test system is G-MDSCs or M-MDSCs isolated from RENCA tumors. Description: T cell suppression assay, ex vivo, MDSCs isolated from RENCA tumors of treated mice. It counts as cell-based, mouse. Here is the method: T cell isolation & activation: Whole spleens were harvested from naïve mice, mashed and passed through a 70 μm strainer. Cells were then washed, lysed with RBC lysis buffer (Affymetrix 00-4333-57), and cultured in RPMI medium with 10% FBS, Pen (100 units/ml)-Strep ([…]), 1 mM sodium pyruvate, […] non-essential amino-acids, 2 mM L-Glutamine, 55 μM BME, with anti-CD3 (eBioscience 16-0031-85) and anti-CD28 (eBioscience 5012503) for approximately 24 hours. CD8^+ T cells were then isolated using a CD8a^+ T cell isolation kit from Miltenyi Biotec (130-104-075), stained with CFSE (NC9759757), according to the manufacturer's protocol, and co-cultured with MDSCs as described below. MDSC Isolation: MDSCs were isolated from RENCA tumors of each group using Miltenyi Biotec's Myeloid Derived Suppressor Cell Isolation Kit (130-094-538) and co-cultured with isolated CD8^+ T cells in serially diluted concentrations. T cell suppression assay: T cells (1×10^5; isolated with a CD8a^+ T cell isolation kit; Miltenyi Biotec) were cultured in plates with varying numbers of either G-MDSCs or M-MDSCs isolated from RENCA tumors for 16-18 hours. T cells isolated in the listed method were co-cultured with entinostat treated J774M cells for 68-72 hours. Cells were then harvested, stained and analyzed via FACS analysis. Cell staining and flow cytometry: Splenocytes, tumor cell suspensions, and peripheral blood cells were washed, blocked with Fc Block (anti-mouse CD16/32 mAb; BD Biosciences) at 4° C. for 15 minutes, and stained with fluorescence conjugated antibodies against surface markers: CD45 (clone 30-F11), CD11b (clone M1/70), Gr1 (clone RB6-8C5), Ly6C (clone AL-21), Ly6G (clone 1A8), F480 (clone BM8), CD8a (clone 53-6.7), CD4 (clone RM4-5) antibodies purchased from BioLegend, eBioscience or BD Biosciences. Cells were then fixed in Fixation/Permeabilization buffer (eBioscience) and stained with antibodies against intracellular proteins, including FoxP3 (NRRF-30) and Granzyme B (clone GB11). The antibodies were purchased from BD Biosciences, Biolegend, and R&D Systems and used in staining. […]

Data set [4] relates to Myeloid derived suppressor cells (G-MDSCs, M-MDSCs). Description: FACS analysis of G-MDSC and M-MDSC in tumor and blood. It counts as in vivo, Balb/c mice. Here is the method:
as §1
Cell staining and flow cytometry: Splenocytes, tumor cell suspensions, and peripheral blood cells were washed, blocked with Fc Block (anti-mouse CD16/32 mAb; BD Biosciences) at 4° C. for 15 minutes, and stained with fluorescence conjugated antibodies against surface markers: CD45 (clone 30-F11), CD11b (clone M1/70), Gr1 (clone RB6-8C5), Ly6C (clone AL-21), Ly6G (clone 1A8), F480 (clone BM8), CD8a (clone 53-6.7), CD4 (clone RM4-5) antibodies purchased from BioLegend, eBioscience or BD Biosciences. Cells were then fixed in Fixation/Permeabilization buffer (eBioscience) and stained with antibodies against intracellular proteins, including FoxP3 (NRRF-30) and Granzyme B (clone GB11). The antibodies were purchased from BD Biosciences, Biolegend, and R&D Systems and used in staining. Stained cells and isotype-control-stained cells, were assayed on a LSR4 or Fortessa flow cytometer (BD Biosciences). Data analysis was performed using the FlowJo (FlowJo LLC) and/or ModFit LT 4.1 software.

Data set [5] concerns MDSC-like cell line J774M. Description: T cell suppression assay with entinostat treated J774M cells. The conditions noted are these: J774M treated 24 hours in vitro, co-culture with pre-activated CD8+ T cells 68-72 hours. In kind it is cell-based. Here is the method:
The J774M cell line was cultured with DMEM (Corning) media with 10% fetal bovine serum (Corning) and 1% Pen/Strep (Life Technologies). Cells were incubated in 37° C. and 5% CO2. […] T cell isolation & activation: Whole spleens were harvested from naïve mice, mashed and passed through a 70 μm strainer. Cells were then washed, lysed with RBC lysis buffer (Affymetrix 00-4333-57), and cultured in RPMI medium with 10% FBS, Pen (100 units/ml)-Strep ([…]), 1 mM sodium pyruvate, […] non-essential amino-acids, 2 mM L-Glutamine, 55 μM BME, with anti-CD3 (eBioscience 16-0031-85) and anti-CD28 (eBioscience 5012503) for approximately 24 hours. CD8^+ T cells were then isolated using a CD8a^+ T cell isolation kit from Miltenyi Biotec (130-104-075), stained with CFSE (NC9759757), according to the manufacturer's protocol, and co-cultured with MDSCs as described below. T cell suppression assay: T cells (1×10^5; isolated with a CD8a^+ T cell isolation kit; Miltenyi Biotec) were cultured in plates with varying numbers of either G-MDSCs or M-MDSCs isolated from RENCA tumors for 16-18 hours. T cells isolated in the listed method were co-cultured with entinostat treated J774M cells for 68-72 hours. Cells were then harvested, stained and analyzed via FACS analysis.

Another data set deals with chemokines and cytokines. The experiment in a line: Proteome Profiler Mouse XL Cytokine array (Ary028) of tumor lysates and serum. It counts as in vivo. Here is the method: Proteome Profile: Tumor tissue was homogenized in PBS containing protease inhibitors. Following homogenization, Triton X-100 was added to a final concentration of 1%, frozen at −80° C., thawed, centrifuged as 10,000 g for 5 minutes, quantified and assayed according to the manufacturer's protocol. Blood samples were collected from mice in each cohort, allowed to clot for 2 hours at room temperature, centrifuged at 2000 g for 15 minutes. Serum samples were frozen at −80° C. until time of analysis at which time they were run according to manufacturer's protocol. All samples were processed and run on R&D Systems mouse XL cytokine array kit (Ary028).

For data set [6], the system named is advanced renal cell carcinoma. The conditions noted are these: advanced renal cell carcinoma patients, cited from earlier work.

Consider `Nc1ccccc1NC(=O)c1ccc(CNC(=O)OCc2cccnc2)cc1` [entinostat, Pyridin-3-ylmethyl N-[[4-[(2-aminophenyl)carbamoyl]phenyl]methyl]carbamate], for which the “arginase-1 (Arg1) expression” value in the data set with arginase-1 (Arg1) is reported as “significant inhibition”. Also, the tumor growth inhibition in [1] was found to be 52.6%. Moreover, the iNOS fold change result in the data set with iNOS is given as “inconclusive results”. In the data set on J774M cells, the “J774M cell proliferation or viability” value is listed as “no significant alteration”. Besides, in [2], the “FoxP3 protein levels (MFI) in circulating CD4+FoxP3+ cells” value is reported as “significant decrease”. For the same compound, in data set [3] (MDSC to T cell ratios 1:1, 0.5:1, 0.25:1, co-culture 16-18 hours, mice treated in vivo, p≤0.01), the “capacity of MDSCs (G-MDSC or M-MDSC) to inhibit CD8+ T cell proliferation” value is given as “significant reduction”. For the same compound, the “CD8+ T cell proliferation in co-culture with MDSCs from treated mice” value in [3] (co-culture 16-18 hours, similar to control stimulated CD8+ T cells alone) is listed as about 90%. The “increase in Granzyme B production by CD8+ T cells” value in [3] (compared to co-culture with MDSCs from untreated tumor-bearing mouse, p<0.01) is reported as “approximately 40%”. In data set [4] (TME, vs control), the “tumor infiltrating G-MDSC population” value is “slight increase” and the “tumor infiltrating M-MDSC population” value is given as “slight increase”. Also, in [4] (blood), the “circulating G-MDSCs” value is given as “slight decreases” and the “circulating M-MDSCs” value is recorded as “significant increases”. For the same compound, the “CD8+ T cell proliferation in co-culture with treated J774M cells” value in data set [5] was “significant increase”. Further, the “circulating pro-tumor associated chemokines and cytokines” value in the data set on chemokines and cytokines (serum vs control, adiponectin, angiopoietin-2, chitinase 3-like 1, CCL12, C5, c-reactive protein, IL-6, pentraxins 2/3, periostin, CCL17, M-CSF, GM-CSF, MMP-2, MMP-9, CCL2, osteoprotegerin, VCAM) is “Significant decreases”. The “MDSC associated trafficking/accumulation and expansion/activation cytokines in the TME” value in the data set with chemokines and cytokines (tumor lysates vs control, CCL2, VCAM-1/CD106, Angiopoietin-2, G-CSF, GM-CSF, IL-1β, IL-10) is reported as “significant reduction”. Further, in the data set on chemokines and cytokines (tumor lysates vs control, CXCL10/IP-10, E-selectin, IL-1ra, IL-4, IL-12p40), the “anti-tumor chemokines and cytokines in the TME” value is reported as “significant upregulation”. The “upregulation of anti-tumor cytokines/chemokines” value in the data set on chemokines and cytokines (vs control cohort, CXCL9, CXCL10, IL-4, IL-13, E-selectin, IL-12p40) is “note observed”.
“nivolumab: a PD-1 inhibitor, immune checkpoint inhibitor approved for advanced renal cell carcinoma”: the “treatment related adverse events” value in data set [6] was “limited treatment related adverse events”. The “increase in overall survival” value in data set [6] (compared to standard of care, everolimus) was 78%.
